Entries after “also recorded” stand apart in the source; their conditions may differ. Where no end group is shown, it is not given here.
Tests used:
[1] = system: plasmacytoid dendritic cells (pDC); experiment: IFN-α and cytokine production by purified human pDC (ELISA of supernatants); assay type: cell-based; conditions: for pDC activation to produce IFN-α: substance alone added to purified pDC
Description: (§1) PDC from healthy donors were purified from freshly collected buffy coats. Briefly, PBMC were isolated by Ficoll-Hypaque density gradient centrifugation (GE Healthcare, Piscatway, N.J.) followed by positive sorting using anti-BDCA4-conjugated magnetic microbeads (Miltenyi Biotec, Auburn, Calif.). The recovered cells were stained with PE-Cy5-conjugated anti-CD4, APC-conjugated CD11c, and a cocktail of FITC-conjugated anti-CD3, anti-CD14, anti-CD16, anti-CD15, anti-CD20 and anti-CD56 (Lineage-FITC) (BD Pharmingen, San Diego, Calif.). The CD4+CD11c-Lin- (pDC precursors) were isolated by cell sorting. Purity was routinely >99%. PDC (5-10×10^4/well) were cultured in 96-well round-bottom plates in RPMI 1640 (GIBCO, Carlsbad, Calif.) supplemented with 10% FCS (Atlanta Biologicals, Lawrenceville, Ga.). Where indicated, pDC were stimulated with CpGA (1 μM), CpGB (1 μM), R837 (10 ug/ml), IRS (4 uM), non-CpG sequence (4 uM), and different concentrations of LL-37 and of human genomic DNA. To prepare LL-37.DNA complexes, CpGB, huDNA, non-CpG and LL-37 were mixed by inversion and incubated for 30 min at room temperature before being added to the cells.
(§2) Supernatants samples were taken after 18-24 h after addition of the stimuli. Human IFN-α was measured using a human IFN-α ELISA kit (PBL Biomedical Laboratories, New Brunswick, N.J.) according to the company's instructions. IL-6 and TNF-α were detected using a kit for human IL6 and TNF-α (R&D Systems), respectively.

pDC [2] = experiment: pDC viability; assay type: cell-based, human; conditions: not shown
[3] = system: LL-37-mediated activation of pDC; experiment: Inhibition of LL-37-mediated IFN-α induction in pDC; assay type: cell-based, human; conditions: pDC stimulated with LL-37 (10 μM) in presence of the substance
Description: (A) pDC were stimulated with LL-37 (10 μM) in the presence of pertussis toxin (PTX) or KN62 to block the FPRL-1 and the P2X pathway respectively. Furthermore agonistic W peptide and ATP were used to stimulate these pathways on pDC. (B) pDC were stimulated with LL-37 (10 μM) in the presence of increasing concentrations of chloroquine to block the endosomal TLR pathway. (C) PDC were pre-treated DNase I, TLR-9 inhibitor (IRS, 4 μM) or ctrl ODN sequences for 30 min and followed by incubation with LL-37 (10 μM), CpG 2216 (CpGA, 1 μM) or imiquimod (R837,10 μg/ml) for 24 h (A). The culture supernatants were analyzed for IFN-α production by ELISA. One representative experiment of three is shown.
Heparin (an anionic sugar) was preincubated for ½ h with LL-37 before stimulating pDC (thus associating with self-DNA released by dying cells in culture) or before adding genomic human DNA and subsequently stimulating pDC.
as §1, §2

pDC [4] = experiment: pDC stimulation by supernatant of activated neutrophils (type I IFN); assay type: cell-based, human; conditions: neutrophils pretreated with inhibitor
Description: (Left panel) IFN-α released by pDC stimulated with NET w/o Pr-3 inhibitors, CpG, w/o Pr-3 inhibitors is used as positive control.
These findings indicate that proteinase 3 inhibitors block the generation of the mature LL-37 peptide, thus inhibiting the LL-37-mediated break of innate tolerance to self-nucleic acids.

proteinase 3 = molecular target: T1, proteinase 3 (Homo sapiens, UniProt P24158); experiment: Cleavage of LL-37 from propeptide hCAP18 in activated neutrophils (Western blot); assay type: cell-based; conditions: pretreatment of neutrophils, PMA activation
T1 construct: endogenous in cells
T1 sequence (P24158 28-248): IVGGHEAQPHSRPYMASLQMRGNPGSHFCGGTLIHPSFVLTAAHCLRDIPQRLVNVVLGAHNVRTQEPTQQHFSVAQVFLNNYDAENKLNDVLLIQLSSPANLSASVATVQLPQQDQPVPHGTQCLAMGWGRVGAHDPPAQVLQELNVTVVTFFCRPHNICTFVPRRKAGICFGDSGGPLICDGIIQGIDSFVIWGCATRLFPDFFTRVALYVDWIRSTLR

human genomic DNA = experiment: Complex formation with DNA (ethidium bromide intercalation, size exclusion HPLC); assay type: binding
Description: (A) Emission spectra of human genomic DNA intercalated with Ethimidium bromide in the presence of increasing doses of LL-37. (B) Size exclusion HPLC of LL-37 alone, mut-LL-37 alone or DNA premixed with LL-37 or mut-37. […] Absorbance scales are different to accommodate the DNA peak.

## Nc1ncnc2c1ncn2[C@@H]1O[C@H](COP(=O)(O)OP(=O)(O)OP(=O)(O)O)[C@@H](O)[C@H]1O [ATP, Adenosin triphopshate]
[1]
  pDC activation to produce IFN-α: did not result in IFN-α production by pDC

## CCN(CC)CCCC(C)Nc1ccnc2cc(Cl)ccc12 (stereo not drawn) [Chloroquine]
pDC [2]
  Effect on pDC viability: no measurable effect on pDC viability
[3]
  Effect on IFN-α induction by LL-37 in pDC: inhibited LL-37-mediated IFN-α induction in a dose-dependent manner

## CC(C)C[C@H](NC(=O)[C@@H](NC(=O)N[C@@H](Cc1ccccc1)C(=O)O)[C@@H]1CCN=C(N)N1)C(=O)N[C@H](C=O)Cc1ccccc1 [Chymostatin]
pDC [4]
  Capacity of activated neutrophils to stimulate pDC to produce type I IFNs: abrogated; also recorded: inhibit the activation of pDC by self-DNA released by neutrophils
Proteinase 3
  Cleavage of the 4 kD LL-37 peptide from hCAP18: can be blocked; also recorded: block the cleavage of LL-37 from its propeptide hCAP

## CN([C@@H](Cc1ccc(OS(=O)(=O)c2cccc3cnccc23)cc1)C(=O)N1CCN(c2ccccc2)CC1)S(=O)(=O)c1cccc2cnccc12 [KN62, KN-62]
[3]
  Effect on IFN-α induction by LL-37 in pDC: did not inhibit IFN-α induction by LL-37

## DNase I
[3]
  Effect on IFN-α induction by LL-37 in pDC: significantly inhibited

## GGGGGACGATCGTCGGGGGG [CpGA]
[1]
  IFN-α induction by pDC, single stranded form complexed to LL-37: restored
[1]; multimeric complex disrupted
  IFN-α induction by pDC, single stranded form (heat and flash cooling): strongly inhibited

## HBD-3: AMP cultured with pDC at equimolar doses (GIINTLQKYYCRVRGGRCAVLSCLPKEEQIGKCSTRGRKCCRRKK; ends and bridges not checked; cysteine pairing not given here; UniProt P81534 23-67, looked up)
[1]
  pDC activation to produce IFN-α: did not induce pDC activation to produce IFN-α

## LLGDFFAVSKEKIGAEFVRIVQAIKDFLRNLVPRTES [mLL-37]
Human genomic DNA
  Complex formation with DNA: not able to complex with DNA
[1]
  pDC activation to produce IFN-α: complete abrogation of pDC activation
[1]; listed as mutated LL-37 peptide
  pDC activation to produce IFN-α: did not induce IFN-α

## MeOSuc-CMK
pDC [4]
  Capacity of activated neutrophils to stimulate pDC to produce type I IFNs: abrogated; also recorded: inhibit the activation of pDC by self-DNA released by neutrophils
Proteinase 3
  Cleavage of the 4 kD LL-37 peptide from hCAP18: can be blocked; also recorded: block the cleavage of LL-37 from its propeptide hCAP

## Pertussis Toxin [PTX]
[3]
  Effect on IFN-α induction by LL-37 in pDC: did not inhibit IFN-α induction by LL-37

## TCGTCGTTTTGTCGTTTTGTCGTT [phophodiesteric CpG-B]
[1]
  IFN-α production by pDC stimulated with nucleic acid alone or combined with LL-37, as labelled: unable to induce IFN-α

## TCGTCGTTTTGTCGTTTTGTCGTT [phosphothiorate CpG-B]
[1]
  IFN-α production by pDC stimulated with nucleic acid alone or combined with LL-37, as labelled: induced significant levels of IFN-α

## WKYMV-peptide [W peptide]
[1]
  pDC activation to produce IFN-α: did not result in IFN-α production by pDC

## heparin
[3]
  Effect on IFN-α induction by LL-37 in pDC: completely abrogated; also recorded: inhibits the ability of LL-37 to induce IFN-α

B1: S100-7: AMP cultured with pDC at equimolar doses (protein, UniProt P31151 2-101, looked up)
Protein S100-A7: SNTQAERSIIGMIDMFHKYTRRDDKIEKPSLLTMMKENFPNFLSACDKKGTNYLADVFEKKDKNEDKKIDFSEFLSLLGDIATDYHKQSHGAAPCSGGSQ
[1]
  pDC activation to produce IFN-α: did not induce pDC activation to produce IFN-α

— patent publication US20120315290A1, “INHIBITORS OF LL-37 MEDIATED IMMUNE REACTIVITY TO SELF NUCLEIC ACIDS” (BOARD OF REGENTS, THE UNIVERSITY OF TEXAS SYSTEM, priority 2006, published 2012)
